Results: patent US20030027835A1 (priority 1999, published 2003)
Counter-ions that a name gives are not always drawn.

Assays:
[1] = test system: PGE2-induced hyperalgesia; assay: PGE2-induced hyperalgesia in the rat (Randall and Selitto test)
[2] = test system: sodium currents in rat dorsal root ganglia (DRG) neurons; type: cell-based
[3] = test system: rabbit corneal reflex; assay: corneal reflex testing in rabbits (local anesthetic effect); type: in vivo
Description: FIG. 4: Local anesthetic effect of TMB (A) and lidocaine (B) as determined in the rabbit corneal reflex. The values represent the median of percentage of inhibition of corneal reflex calculated for each set of 10 stimulations. The x axis represents time (in minutes) following instillations.*P<0.05; **P<0.01 compared with the control group treated with the vehicle (Mann-Whitney U test).
White New-Zealand male rabbits (CEGAV, Les Hauts Noës, Saint Mars d'Egrenne, France) weighing 1.9-2.7 kg were used. Animals were housed individually in cages placed in an air-conditioned (17-21° C.) animal house kept between 45% and 65% relative humidity and with an artificial day/night cycle (12 h-12 h) with light on at 7.30 am.
Test substances are administered as solutions in sterile water (Baxter, Maurepas, France). The concentrations of test substances are expressed as percentage (weight/volume) of active compound (base form). Each test substance at each concentration is tested on the two eyes of 5 animals (i.e. 10 measurements per substance and per concentration). On the day of the study, animals are placed in restraint cages in a quiet room. Twenty to 30 minutes later, a first measurement of the corneal sensitivity is performed. Any animal presenting a partial or complete corneal insensitivity or any ocular lesion before administration is excluded from the study. Immediately after the first measurement, 2×50 μl of test substances or their vehicle are applied to the cornea. The two instillations were undertaken on each eye at a one-minute interval. Corneal sensitivity is subsequently measured at 5, 10, 20, 30, 40, 50 and 60 minutes following the instillations, and then at 2, 3 and 4 hours after the instillations. Corneal sensitivity is measured by touching gently the center of the cornea with a loop-shape nylon yarn (0.3 mm diameter). For each measurement, this operation is repeated 10 times at regular 2 second intervals. The number of stimulations producing a corneal reflex is noted for each set and for each eye.
Results are expressed as percentage of inhibition of the corneal reflex calculated for each set of 10 stimulations:
% inhibition of corneal reflex=10-(number of stimulations inducing a corneal reflex)×10
For each experimental group, median values are determined. The effects of test compounds are compared with those of the vehicle using a Mann-Withney non-parametric U test at each time of measurement. Areas under curves are calculated over the first 60-minute period following instillation for each animal and each concentration by the trapezoidal method of Bourget et al., 1993. The relative potency of TMB) is compared to that of lidocaine hydrochloride from respective mean areas under curves using a covariance analysis.

CN1CC[C@]23c4c5ccc(O)c4O[C@H]2[C@@H](O)C=C[C@H]3[C@H]1C5 [Morphine, morphine]
% of analgesic activity ([1]; Morphine 0.3 mg/kg s.c., 30 min before test (T1 of FIG. 5)): 22% | % of analgesic activity ([1]; Morphine 3 mg/kg s.c. (M3 of FIG. 6)): 64%

CCC(COC(=O)c1cc(OC)c(OC)c(OC)c1)(c1ccccc1)N(C)C.O=C(O)/C=C\C(=O)O (racemic) [Trimebutine, 2-dimethylamino-2-phenylbutyl 3,4,5-trimethoxybenzoate hydrogen maleate]
% of analgesic activity ([1]; Trimebutine 100 mg/kg s.c. (T2 of FIG. 5)): 27% | blocking rate kon [2]: 35-40 10^−3 s^−1 μM^−1 | duration of local anesthetic effect ([3]; 0.1% concentration): 20 min | potency relative to lidocaine ([3]; comparison of areas under the curve over first 60 min): 17 fold | duration of complete local anesthesia ([3]; instillation of 0.3% or 1%): more than 60 min | concentration giving first significant local anesthetic effects ([3]; rabbit cornea, instillation): 0.1%

CCN(CC)CC(=O)Nc1c(C)cccc1C [lidocaine, lidocaine hydrochloride]
duration of complete local anesthetic effect ([3]; 6% concentration): 25 min | inhibition of corneal reflex ([3]; 6% concentration, 60 min after instillation): no more inhibition | local anesthetic activity ([3]; up to the concentration of 0.3%): inactive
